In PMC4436076 (mBio, 2015):
In brackets after ≈: the same amount, converted by molar mass. Peptide text beside a SMILES is read from it. * marks the point of attachment. Cbz = O=C(OCc1ccccc1)*

Key:
Type in all cases: cell-based
M. smegmatis [1] = assay: microbe, parasite or virus in culture
Mycobacterium bovis BCG = assay: microbe, parasite or virus in culture
M. tuberculosis H37Rv = assay: microbe, parasite or virus in culture; details: Mycobacterium tuberculosis, 120 h
M. smegmatis [2] = test system: M. smegmatis
WT M. smegmatis = details: subinhibitory, 24 h, OD600
[3] = test system: caseinolytic protease substrate WhiB1 (M. smegmatis pTet-GFP-WhiB1)

SMILES	Growth inhibition of WT M. smegmatis, in words (M. smegmatis [1])	Growth inhibition of WT M. bovis, in words (Mycobacterium bovis BCG)	other results
CC(C)C[C@H](NC(=O)[C@@H](NC(=O)c1cccc(-c2ccccc2)n1)[C@@H](C)O)B(O)O [CEP-18770]	same potent growth inhibition as BZ	strongest growth inhibition	
CC(C)C[C@@H](C=O)NC(=O)[C@H](CC(C)C)NC(=O)[C@H](CC(C)C)NC(=O)OCc1ccccc1 [MG-132] (Cbz-Leu-Leu-Leu-aldehyde)	completely abrogated	no response	
CC(C)C[C@H](NC(=O)CNC(=O)c1cc(Cl)ccc1Cl)B(O)O [MNL-2238]	weaker growth inhibition		
CC(C)C[C@H](NC(=O)CNC(=O)c1cc(Cl)ccc1Cl)B1OC(=O)C(CC(=O)O)(CC(=O)O)O1 [MNL-9708]	active		
CC(C)C[C@H](NC(=O)[C@H](Cc1ccccc1)NC(=O)c1cnccn1)B(O)O [compound 100, bortezomib]	showed an effect	strongest growth inhibition	MIC50 (M. smegmatis [1]; Mycolicibacterium smegmatis, 24 h): 4 µM (≈ 1.54 µg/mL); MIC50 (Mycobacterium bovis BCG; Mycobacterium tuberculosis variant bovis BCG, BCG, 120 h): 0.3 µM (≈ 0.115 µg/mL); MIC50 (M. tuberculosis H37Rv): 0.8 µM (≈ 0.307 µg/mL); MBC90 (minimum bactericidal concentration that kills 90% of an initial inoculum) (M. smegmatis [2]): 30 µM; Growth inhibition in combination with amikacin (WT M. smegmatis; BZ 1.5 µM + amikacin 0.4 µM): complete growth inhibition; Potentiation of chloramphenicol (WT M. smegmatis; BZ 1.5 µM + chloramphenicol 4.5 µM): no potentiation effect; Growth inhibition in combination with streptomycin (WT M. smegmatis; BZ 1.5 µM + streptomycin 0.05 µM): complete growth inhibition; GFP-WhiB1 fluorescence [3]: increased fluorescence in a dose-dependent manner
